One data set has as its system 4T1-luciferase tumors. As to the kind of experiment: 4T1-luciferase tumor IVIS bioluminescence, co-injection with crystals. In kind it is in vivo, BALB/c mice. Particulars: 2 mg of 150-200 μm crystals co-injected with 4T1-luciferase cells; up to 20 days; vs PBS controls; p<0.05. As to the method:
To determine long-term potential of tunable, slow-releasing crystal-formulated sorafenib, efficacy of a single injection of the injectable drug composition was measured in a syngeneic model of triple negative breast cancer (TNBC): 4T1 tumors grown orthotopically in the mammary fat pad of BALB/c mice. For in vivo testing, mice were anesthetized with inhaled isofluorane and inoculated with 4T1, also referred to as 4T1-Luciferase, Luc, cancer cells, injected into the right inguinal mammary fat pad, as shown in FIG. 3A. […] Tumor presence was quantified over time up to 20 days post injection in both cases based on measured luminescence in equivalent regions of interest (ROIs, white circles), depicted in FIG. 3C. […]
4T1 or 4T1-luc2 cells were trypsinized using 0.25% Trypsin-EDTA, then diluted with the appropriate complete culture media and spun in a centrifuge at 300 g for 5 min. […] Cells were counted with a Countess automated cell counter. […] Tumors were measured externally using a digital caliper, and volume was calculated (!″* (length * height) *−length * height). […]
4T1-Luc2 tumor-injected mice were dosed with RediJect D-Luciferin K+ salt 5 minutes prior to examination. […] Equivalent regions of interest (ROIs) were used for quantification of tumor groups.

Data set [1] is described as follows: crystal stability in aqueous solutions (brightfield microscopy). In kind it is physicochemical. The conditions noted are these: 1-2 mg crystal, 300 μL saline, RPMI-1640 media, 1X PBS or saline with 0.1% SDS; solutions replaced every hour; after 36 hours. An excerpt:
After crystals visibly stopped precipitating or growing, the vessel was submerged in an ultrasonic water bath for 10-30 seconds to dislodge crystals from the vessel sidewall and break them into more a uniform size distributions, either smaller fines, for example 50 μm, or between 150-200 μm, as measured by brightfield and scanning electron microscopy, shown in FIGS. 2A-2B. Resultant product was then removed from the supernatant mother solution, dried, weighed, and stored for later use. On average, yielded crystal was approximately 40% of the starting powder. Furthermore, methods exist to quantify solubilized material, typically using optics to identify changes in light transmittance, and enabled testing of crystal stability in a range of aqueous solutions. To do so, between 1-2 mg of crystal was placed in a 96-well plate with 300 μL of DMSO, saline, RPMI-1640 media, 1X phosphate buffer solution (PBS), or saline with 0.1% sodium dodecyl sulfate (SDS). […] To simulate cumulative drug release over time, all 3 mL supernatant volumes were removed and replaced with completely fresh release media at desired times of 1 hr, 4 hr, 6 hr, 8 hr, 10 hr, 1 day, 2 days, 5 days, 7 days, 10 days and 12 days, and 200 μL aliquots were measured in individual wells of a 96-well plate at 266 nm to determine solubilize sorafenib release, as shown in FIG. 2D.

The test system of another data set is 4T1 tumors. The data set is described as follows: orthotopic parent 4T1 TNBC tumor growth. In kind it is in vivo, BALB/c mice. As to the method: Namely, 4T1 tumors were treated with either PBS (PBS CONTROL), intraperitoneal (IP) bolus sorafenib (25 mg/kg BW/day) (IP BOLUS), 3 mg IP injected sorafenib crystals (IP CRYSTAL 3 MG), or sorafenib crystals (3 mg: SC CRYSTAL (3 MG); 10 mg: SC CRYSTAL (10 MG)) injected around developed tumors in the subcutaneous (SC) mammary fatpad. Furthermore, to truly test the utility of crystalline sorafenib in treating such an aggressive TNBC model, treatment was carried out retrospectively and only started once tumor volumes reached ˜225-250 mm^3. A positive control liquid-dissolved and daily injected drug treatment group was included, where mice were dosed with a daily bolus of 25 mg sorafenib/kg of mouse BW. […] This may be supported by our prior observation that in the IP compartment, where there is higher 10 liquid turnover as compared to the SC space, crystalline drugs usually have a faster kinetic of release over time.
4T1 or 4T1-luc2 cells were trypsinized using 0.25% Trypsin-EDTA, then diluted with the appropriate complete culture media and spun in a centrifuge at 300 g for 5 min. The supernatant was aspirated, and the pellet was re-suspended in serum-free RPMI 1640. The solution was centrifuged again, and the supernatant aspirated. Re-suspension, centrifugation, and aspiration was repeated once more. 5 mL of RPMI-1640 was then added to the pellet. 10 μL of the cell suspension was removed and mixed with 10 μL of Trypan blue stain 0.4% (ThermoFisher). Cells were counted with a Countess automated cell counter. Cell solutions were centrifuged one more time, the supernatant aspirated, and the pellet resuspended in the amount of RPMI-1640 required to achieve a concentration of 5×10^5 cells/200 μL of media. Tumor cells were then administered orthotopically in naive (and anesthetized) BALB/c mice into the right inguinal mammary fat pad 21 with 200 μL aliquots of the cell suspension, using an insulin syringe. Tumors were measured externally using a digital caliper, and volume was calculated (!″* (length * height) *−length * height). Except in the 4T1-luc2 trial, treatment began once tumors reached an average volume of 220-250 mm3. Experimental end point was deemed when solid tumors reached a volume of no more than 2000 mm3. Tumors were extracted and harvested, half stored in 4% paraformaldehyde diluted from 32% (Cat#50980495, Electron Microscopy Services) with DI H2O, and half frozen in liquid nitrogen, then stored at −80° C.
Once tumors had reached an average volume of ˜220-250 mm^3, mice were administered either subcutaneously or intraperitoneally with 3 or 10 mg of crystalline sorafenib, diameter ˜150-200 μm, suspended in 200 μL of sterile saline using an 18 g needle. […]

The source of these data is patent US20240366577A1, “CONTROLLED LONG-TERM DRUG DELIVERY AND METHODS THEREOF” (THE JOHNS HOPKINS UNIVERSITY, priority 2021, published 2024).

Take `CNC(=O)c1cc(Oc2ccc(NC(=O)Nc3ccc(Cl)c(C(F)(F)F)c3)cc2)ccn1` [crystalline sorafenib, sorafenib]: the “anti-tumor efficacy (tumor luminescence in ROIs)” value with 4T1-luciferase tumors is “significant anti-tumor efficacy”. For the same compound, the “difference in crystal size by brightfield microscopy” value in data set [1] was “no noticeable difference”. In addition, the “tumor response (tumor volume)” value with 4T1 tumors (single IP injection, 3 mg crystals) is recorded as “less response than 10 mg SC but more than a comparable 3 mg dose injected SC”; with 4T1 tumors (single local SC injection, 10 mg crystals, start at ~225-250 mm^3), “tumor stasis”; in the data set on 4T1 tumors (single local SC injection, 2-3 mg crystals, start at ~225-250 mm^3), “tumor delays only”.
